Laboratory results published in US20240182460A1, “ALLOSTERIC CHROMENONE INHIBITORS OF PHOSPHOINOSITIDE 3-KINASE (PI3K) FOR THE TREATMENT OF DISEASE” (PETRA PHARMA CORPORATION, priority 2022, published 2024).

Experiments:
PI3Kα E545K [1] = biological target: T1, PI3Kα E545K (Homo sapiens, UniProt P42336, E545K); assay: PI3Kα E545K mutant in vitro cell based assay, MCF-7 cells; conditions: MCF-7 cell line, 0% FBS, 3 hours treatment
Text: PI3K-Alpha Kinase (PI3Kα) Activity: Wild-Type PI3Kα, H1047R Mutant PI3Kα, and E545K Mutant PI3Kα In Vitro Cell Based Assays and Determination of IC50 Values for Inhibitors
The MDA-MB-453 (ATCC-HTB-131) cell line (PI3Kα H1047R) and MCF-7 (ATCC-HTB-22) cell line (PI3Kα E545K), MDA-MB-361 (ATCC-HTB-27) cell line (PI3Kα E545K), and SKBR3 (ATCC-HTB-30) cell line (wild type PI3Kα) were obtained from the American Type Culture Collection (Manassas, VA). MDA-MB-453 cells were maintained in Dulbecco's Modified Eagle Media (DMEM, Gibco 12430) supplemented with 10% Fetal Bovine Serum, heat inactivated (FBS HI, Gibco 10082), 1× non-essential amino acids (NEAA, Gibco 11140), 1 mM sodium pyruvate (Gibco 11360) and 1× Anti-Anti (Gibco 15240). MCF-7 cells were maintained in Minimum Essential Media (MEM) (Gibco 11095) supplemented with 10% Fetal Bovine Serum, heat inactivated (FBS HI, Gibco 10082), 1× non-essential amino acids (NEAA, Gibco 11140), 1 mM sodium pyruvate (Gibco 11360), 1× Anti-Anti (Gibco 15240) and 10 μg/mL human insulin (Sigma I 9278). MDA-MB-361 cells were maintained in Dulbecco's Modified Eagle Media (DMEM, Gibco 12430) supplemented with 20% Fetal Bovine Serum, heat inactivated (FBS HI, Gibco 10082), 1× non-essential amino acids (NEAA, Gibco 11140), 1 mM sodium pyruvate (Gibco 11360) and 1× Anti-Anti (Gibco 15240). SKBR3 cells were maintained in McCoy's 5A (Gibco 16600) supplemented with 10% Fetal Bovine Serum, heat inactivated (FBS HI, Gibco 10082), and 1× Anti-Anti (Gibco 15240). Cultures were maintained in a humidified incubator at 37° C. under 5% CO2/95% air.
For compound testing in 0% FBS, MDA-MB-453, MCF-7 and SKBR3 cells were seeded at a density of 1.5×10^4, 1.0×10^4, and 1.0×10^4 cells, respectively, per well in white 384-well plates in 20 μl of Minimum Essential Media (MEM) assay media with 1×NEAA, 1 mM sodium pyruvate, and 1 μg/mL human insulin (Sigma 19278) (Assay Medium); while MDA-MB-361 cells were seeded at a density of 1.5×10^4 per well in white 384-well plates in 20 μl Assay Medium without insulin. After plating, cells were allowed to attach overnight. Compounds dissolved in 10 mM stock solutions in DMSO were serially diluted 1:3 in DMSO to generate a 10-point dilution series and plated using an acoustic liquid handler system (Echo 550 Series Liquid Handler, Labcyte). A 5× intermediate compound dilution plate in MEM with 1×NEAA and 1 mM sodium pyruvate (150 μM starting compound concentration in 1.5% DMSO) was then prepared. Five μl of the intermediate serially diluted compounds were added to the cell plate to final concentrations ranging from […] in 0.3% DMSO. 0.3% DMSO alone was used to establish the maximum (MAX) signal and GDC-0032 at a final concentration of 1 μM was used as a reference compound for the minimum (MIN) signal. After 3 hours treatment, the medium was removed, and the cells were lysed in 10 μL of 1× SureFire Lysis buffer with shaking for 10 minutes at room temperature. The Acceptor Mix (Reaction Buffer 1+Reaction Buffer 2+Activation Buffer+SureFire Ultra Acceptor Beads) was prepared by diluting Activation buffer 25-fold in combined Reaction Buffer 1 and Reaction Buffer 2.
The Acceptor beads were diluted 50-fold in the combined Reaction Buffers. Five μL of Acceptor Mix was added to each well, the plate was sealed and covered with foil and incubated for 1 hour at room temperature. The Donor Mix (dilution buffer+SureFire Ultra Donor Beads) was prepared by diluting Donor Beads 50-fold in dilution buffer. Five μL of the Donor Mix was added to each well and the plate sealed and covered with foil and incubated for 1-2 hours at room temperature in the dark. The plates were read on a Neo2 plate reader instrument from Biotek using standard AlphaLisa settings.
Compounds were tested in duplicate and the % inhibition at each compound concentration was used to generate two dose response curves. One IC50 was generated using average % inhibition at each compound concentration. […]

[2] = Metabolic stability and intrinsic clearance in human liver microsomes (MICS); format: in vitro ADME; conditions: human, microsomes, pH 7.4
How it was run: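 Test compound (1 μM final) incubated at 37° C with liver microsomes (0.5 mg/mL protein) in 100 mM phosphate buffer pH 7.4, with 1 mM NADPH or without cofactor; sampled at 0.5–60 min, quenched with cold acetonitrile. Parent remaining quantified by LC-MS/MS; t1/2 from ln-% remaining slope converted to CLint (μL/min/mg protein).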

PI3Kα E545K [3] = biological target: T1, PI3Kα E545K; assay: PI3Kα E545K mutant in vitro cell based assay, MDA-MB-361 cells; design: MDA-MB-361 (ATCC-HTB-27) cell line (PI3Kα E545K); host or cells: MDA-MB-361; conditions: MDA-MB-361 cell line, 0% FBS, no insulin, 3 hours treatment
How it was run: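 MDA-MB-361 cells (PI3Kα E545K) seeded in serum-free MEM assay medium without insulin, attached overnight, then treated 3 h with compound (10-point 1:3 series, 0.3% DMSO). AlphaLISA SureFire readout of lysates. IC50 by 4-parameter fit, normalized to DMSO (max) and 1 μM GDC-0032 (min).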

T1 sequence (P42336 whole entry E545K): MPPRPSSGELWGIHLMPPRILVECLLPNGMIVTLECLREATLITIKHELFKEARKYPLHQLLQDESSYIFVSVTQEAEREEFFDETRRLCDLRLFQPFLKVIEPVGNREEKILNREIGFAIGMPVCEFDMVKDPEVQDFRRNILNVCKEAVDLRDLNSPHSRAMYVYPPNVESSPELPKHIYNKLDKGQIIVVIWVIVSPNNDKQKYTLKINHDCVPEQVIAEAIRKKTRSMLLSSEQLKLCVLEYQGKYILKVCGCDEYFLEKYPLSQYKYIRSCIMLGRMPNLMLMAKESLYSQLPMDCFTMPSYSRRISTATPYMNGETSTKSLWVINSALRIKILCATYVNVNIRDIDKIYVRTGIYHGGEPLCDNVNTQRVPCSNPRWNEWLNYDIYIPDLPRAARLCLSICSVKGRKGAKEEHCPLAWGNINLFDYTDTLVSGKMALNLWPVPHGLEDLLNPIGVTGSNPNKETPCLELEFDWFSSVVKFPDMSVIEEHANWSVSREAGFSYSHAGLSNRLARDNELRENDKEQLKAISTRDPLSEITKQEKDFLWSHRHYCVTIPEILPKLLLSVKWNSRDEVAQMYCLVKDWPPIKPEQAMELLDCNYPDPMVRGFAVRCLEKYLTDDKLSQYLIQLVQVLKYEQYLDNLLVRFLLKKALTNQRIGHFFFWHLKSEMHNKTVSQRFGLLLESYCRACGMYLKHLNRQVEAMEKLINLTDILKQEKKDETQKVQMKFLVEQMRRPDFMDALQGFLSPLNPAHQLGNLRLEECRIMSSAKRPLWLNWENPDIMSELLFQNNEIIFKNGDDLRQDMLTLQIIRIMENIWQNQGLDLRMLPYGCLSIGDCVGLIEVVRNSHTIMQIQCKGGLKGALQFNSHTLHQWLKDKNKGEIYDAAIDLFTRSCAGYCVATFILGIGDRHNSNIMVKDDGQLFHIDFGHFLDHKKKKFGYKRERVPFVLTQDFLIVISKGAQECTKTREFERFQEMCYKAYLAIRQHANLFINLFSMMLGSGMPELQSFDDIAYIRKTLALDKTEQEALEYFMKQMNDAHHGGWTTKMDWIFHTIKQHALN
T1 sequence (P27986 whole entry partner): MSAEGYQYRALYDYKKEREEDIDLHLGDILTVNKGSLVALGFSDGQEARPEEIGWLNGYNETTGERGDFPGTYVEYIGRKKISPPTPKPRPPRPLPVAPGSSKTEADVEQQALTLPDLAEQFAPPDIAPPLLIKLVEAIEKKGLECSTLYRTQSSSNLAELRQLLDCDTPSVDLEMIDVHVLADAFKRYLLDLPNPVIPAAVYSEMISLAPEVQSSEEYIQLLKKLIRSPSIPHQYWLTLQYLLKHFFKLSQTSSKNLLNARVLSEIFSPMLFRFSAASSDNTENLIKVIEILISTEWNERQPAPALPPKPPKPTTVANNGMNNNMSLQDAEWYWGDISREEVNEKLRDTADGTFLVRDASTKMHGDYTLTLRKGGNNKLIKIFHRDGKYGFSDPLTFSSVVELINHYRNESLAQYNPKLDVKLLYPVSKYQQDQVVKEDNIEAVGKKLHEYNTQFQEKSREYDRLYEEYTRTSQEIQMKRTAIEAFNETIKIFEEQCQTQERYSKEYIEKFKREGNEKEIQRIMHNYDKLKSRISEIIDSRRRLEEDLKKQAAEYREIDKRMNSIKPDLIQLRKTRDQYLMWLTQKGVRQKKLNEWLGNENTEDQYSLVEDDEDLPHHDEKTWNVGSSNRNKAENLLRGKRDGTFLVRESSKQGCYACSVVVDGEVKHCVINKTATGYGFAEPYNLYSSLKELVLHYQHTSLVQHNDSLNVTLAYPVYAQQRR

SMILES | IC50 (PI3Kα E545K [1]) | microsomal CLint at 1 μM [2] | IC50 (PI3Kα E545K [3])
Cc1cc([C@@H](C)Oc2ccc(Cl)nc2C(N)=O)c2oc(-c3cncc(F)c3)c(C)c(=O)c2c1 [Example 20A, 6-Chloro-3-[(1R)-1-[2-(5-fluoro-3-pyridyl)-3,6-dimethyl-4-oxo-chromen-8-yl]ethoxy]pyridine-2-carboxamide] | < 500 nM | < 50 µL/min/mg | –
Cc1cc([C@@H](C)Oc2ccc(Cl)nc2S(N)(=O)=O)c2oc(C3CC3CO)c(C)c(=O)c2c1 (single isomer, unassigned) [Example 126C] | < 500 nM | – | < 500 nM
Cc1cc([C@@H](C)Oc2ccc(F)c(F)c2C(N)=O)c2oc(-c3ccc4nn(C)cc4c3)c(C)c(=O)c2c1 [Example 17A, 6-[(1R)-1-[3,6-Dimethyl-2-(2-methylindazol-5-yl)-4-oxo-chromen-8-yl]ethoxy]-2,3-difluoro-benzamide] | < 500 nM | – | < 500 nM
Cc1cc([C@@H](C)Oc2ccc(Cl)nc2S(N)(=O)=O)c2oc(-c3ccc4nc(C)cn4n3)c(C)c(=O)c2c1 [Example 19C, 6-Chloro-3-[(1R)-1-[3,6-dimethyl-2-(2-methylimidazo[1,2-b]pyridazin-6-yl)-4-oxo-chromen-8-yl]ethoxy]pyridine-2-sulfonamide] | < 500 nM | < 50 µL/min/mg | –
Cc1cc([C@@H](C)Oc2cccnc2C(=O)NOCC2CC2)c2oc(-c3ccc4nn(C)cc4c3)c(C)c(=O)c2c1 [Example 25A, N-(Cyclopropylmethoxy)-3-[(1R)-1-[3,6-dimethyl-2-(2-methylindazol-5-yl)-4-oxo-chromen-8-yl]ethoxy]pyridine-2-carboxamide] | < 500 nM | – | < 500 nM
Cc1cc([C@@H](C)Oc2ccc(Cl)nc2C(N)=O)c2oc(-c3ccc4nc(CCO)sc4c3)c(C)c(=O)c2c1 [Example 132C, 6-Chloro-3-[(1R)-1-[2-[2-(2-hydroxyethyl)-1,3-benzothiazol-6-yl]-3,6-dimethyl-4-oxo-chromen-8-yl]ethoxy]pyridine-2-carboxamide] | < 500 nM | – | < 500 nM
Cc1cc([C@@H](C)Oc2ccc(Cl)nc2C(N)=O)c2oc(-c3cc4cn(C)nc4cn3)c(C)c(=O)c2c1 [Example 128A, 6-Chloro-3-[(1R)-1-[3,6-dimethyl-2-(2-methylpyrazolo[3,4-c]pyridin-5-yl)-4-oxo-chromen-8-yl]ethoxy]pyridine-2-carboxamide] | < 500 nM | < 50 µL/min/mg | –
Cc1cc([C@@H](C)Oc2ccc(F)cc2S(N)(=O)=O)c2oc(C3CC3)c(C)c(=O)c2c1 [Example 107C, 2-[(1R)-1-(2-Cyclopropyl-3,6-dimethyl-4-oxo-chromen-8-yl)ethoxy]-5-fluoro-benzenesulfonamide] | < 500 nM | – | < 500 nM
Cc1cc([C@@H](C)Oc2ccc(Cl)nc2C(N)=O)c2oc(-c3ccc4nn([C@H]5C[C@@H](O)C5)cc4c3)c(C)c(=O)c2c1 [Example 133C, 6-Chloro-3-[(1R)-1-[2-[2-(3-hydroxycyclobutyl)indazol-5-yl]-3,6-dimethyl-4-oxo-chromen-8-yl]ethoxy]pyridine-2-carboxamide] | < 500 nM | – | < 500 nM
Cc1cc([C@@H](C)Oc2ccc(Cl)nc2C(N)=O)c2oc(-c3ccc4nn(CCO)cc4c3)c(C)c(=O)c2c1 [Example 129C, 6-Chloro-3-[(1R)-1-[2-[2-(2-hydroxyethyl)indazol-5-yl]-3,6-dimethyl-4-oxo-chromen-8-yl]ethoxy]pyridine-2-carboxamide] | < 500 nM | – | < 500 nM
Cc1cc([C@@H](C)Oc2ccc(Cl)nc2S(N)(=O)=O)c2oc(-c3ccc4nn(C)cc4c3)c(C)c(=O)c2c1 [Example 16A, 6-Chloro-3-[(1R)-1-[3,6-dimethyl-2-(2-methylindazol-5-yl)-4-oxo-chromen-8-yl]ethoxy]pyridine-2-sulfonamide] | < 500 nM | – | < 500 nM
Cc1cc([C@@H](C)Oc2ccc(Cl)cc2S(N)(=O)=O)c2oc(-c3ccccc3)c(C)c(=O)c2c1 [Example 98C, 5-Chloro-2-[(1R)-1-(3,6-dimethyl-4-oxo-2-phenyl-chromen-8-yl)ethoxy]benzenesulfonamide] | < 500 nM | – | < 500 nM
COCCn1cc(-c2oc3c([C@@H](C)Oc4ccc(Cl)nc4S(N)(=O)=O)cc(C)cc3c(=O)c2C)cn1 [Example 117C, 6-Chloro-3-[(1R)-1-[2-[1-(2-methoxyethyl)pyrazol-4-yl]-3,6-dimethyl-4-oxo-chromen-8-yl]ethoxy]pyridine-2-sulfonamide] | < 500 nM | – | < 500 nM
Cc1cc([C@@H](C)Oc2ccc(Cl)nc2C(N)=O)c2oc(-c3ccc4nn(CC5(O)CC5)cc4c3)c(C)c(=O)c2c1 [Example 130C, 6-Chloro-3-[(1R)-1-[2-[2-[(1-hydroxycyclopropyl)methyl]indazol-5-yl]-3,6-dimethyl-4-oxo-chromen-8-yl]ethoxy]pyridine-2-carboxamide] | < 500 nM | – | < 500 nM
Cc1cc([C@@H](C)Oc2ccc(Cl)nc2C(N)=O)c2oc(-c3ccc4c(c3)OCC(=O)N4C)c(C)c(=O)c2c1 [Example 119A, 6-Chloro-3-[(1R)-1-[3,6-dimethyl-2-(4-methyl-3-oxo-1,4-benzoxazin-7-yl)-4-oxo-chromen-8-yl]ethoxy]pyridine-2-carboxamide] | < 500 nM | – | < 500 nM
Cc1cc([C@@H](C)Oc2ccc(Cl)nc2C(N)=O)c2oc(-c3cnc4scnc4c3)c(C)c(=O)c2c1 [Example 126A, 6-Chloro-3-[(1R)-1-(3,6-dimethyl-4-oxo-2-thiazolo[5,4-b]pyridin-6-yl-chromen-8-yl)ethoxy]pyridine-2-carboxamide] | < 500 nM | – | –
Cc1cc([C@@H](C)Oc2ccc(Cl)nc2C(N)=O)c2oc(-c3ccc4nsnc4c3)c(C)c(=O)c2c1 [Example 140A, 3-[(1R)-1-[2-(2,1,3-Benzothiadiazol-5-yl)-3,6-dimethyl-4-oxo-chromen-8-yl]ethoxy]-6-chloro-pyridine-2-carboxamide] | < 500 nM | – | –
Cc1cc([C@@H](C)Oc2ccc(Cl)nc2C(N)=O)c2oc(-c3ccccn3)c(C)c(=O)c2c1 [Example 19A, 6-Chloro-3-[(1R)-1-[3,6-dimethyl-4-oxo-2-(2-pyridyl)chromen-8-yl]ethoxy]pyridine-2-carboxamide] | < 500 nM | – | –
Cc1cc([C@@H](C)Oc2ccc(Cl)nc2S(N)(=O)=O)c2oc(C3COC3)c(C)c(=O)c2c1 [Example 114C, 6-Chloro-3-[(1R)-1-[3,6-dimethyl-2-(oxetan-3-yl)-4-oxo-chromen-8-yl]ethoxy]pyridine-2-sulfonamide] | < 500 nM | – | –
